# Where two headings read alike, the source gives them in different places.
# Legend:
# [1] = test system: eIF2.GTP.Met-tRNAi ternary complex; assay: Ternary complex assay: dual luciferase F-luc/R-luc ratio in KLN-tTA/pBISA-DL(ATF-4) cells (HTS screen, 96-well hit confirmation, dose response); type: cell-based, mouse; details: for Ternary Complex Activity: Maximum effect (Emax, fold over control) / Cmax / fold induction at 3 µM / fold induction at 10 µM: cell line not stated; for Cmax: read-out: Ternary Complex Activity: Maximum effective dose Cmax; for fold induction at 3 µM / fold induction at 10 µM: Mus musculus; for Activity 2.5 uM: compound at 2.5 uM; for Activity 2.5 uM / Activity 10 uM: confirmed hits (Table 5); for Activity 10 uM: compound at 10 uM; for Effect on firefly/renilla luciferase ratio: KLN-tTA/pBISA-DL(ATF-4) cells
# From the text: For assay development, a bi-directional plasmid was designed in which a common promoter/enhancer complex drives the transcription of firefly luciferase (F-luc) ORF fused to the 5′ untranslated region (UTR) of ATF-4, and of the renilla luciferase (R-luc) ORF fused to a 90-nucleotide 5′ UTR derived from the plasmid (FIG. 6A). Because the tetracycline-regulated transactivator ((tTA), required for driving transcription from this vector) is not normally expressed in the mammalian cells, stable KLN cancer cells were constructed that expressed tTA (KLN-tTA).
# The KLN-tTA colonies that drove expression of reporter genes from pBISA-DL plasmid were selected by transient transfection and dual luciferase assay. One of these KLN-tTA cell lines was transfected with the pBISA-DL^(ATF-4) expression vector, stable colonies were selected by dual luciferase assay and expanded. To determine if reduced availability of the eIF2.GTP.Met-tRNAi ternary complex increased the translation of firefly luciferase and decreased translation of renilla luciferase, selected KLN-tTA/pBISA-DL^(ATF-4) colonies were treated with thapsigargin (TG) or tunicamycin (TU), two agents known to cause phosphorylation of eIF2α.
# This assay was then adapted for high throughput screening in 96 and 384 well plates. This was done by evaluating the cell density, length of exposure to compounds, DMSO tolerance and optimum firefly and renilla substrate. We then challenged these cells with thapsigargin or DMSO. […] Cell-based assays usually have higher variation than homogeneous in vitro assays due to position effect in the plate, and other variables associated with handling of cells and the plates.
# Screening was conducted in 384 well white opaque plates (Nalge Nunc), 100 μl volume RPMI+10% fetal bovine serum. Cells were plated at the sub-confluent density of 10,000 cells/well, and allowed to attach for a period of 16-18 hours at 37° C., 5% CO2. Compounds were added as 1 μl of a 1 mM DMSO stock solution for a final screening concentration of […] using low-volume tips for transfer (Molecular Bioproducts). Cells were then incubated in the presence of compound for an additional sixteen hours, again at 37° C., 5% CO2. Following incubation 70 μl of the culture medium was removed from each well to allow for reagent addition and plates were allowed to equilibrate to room temperature for thirty minutes. Firefly luciferase reporter activity was then read by the addition of thirty microliters of Dual Glo Luciferase reagent (Promega), followed by one hour incubation at room temperature to allow for adequate signal buildup. Luminescence counting was conducted on a Microbeta Trilux using a 1 second read time. Renilla luciferase reporter activity was measured following addition of 30 μl Stop and Glo Luciferase reagent (Promega) and incubation identical to the one carried out for the firefly luciferase one.
# Compound scores were interpreted as firefly luciferase activity divided by renilla luciferase activity, normalized to the plate's DMSO control. […] All data analysis was conducted using the BioAssay HTS software package (CambridgeSoft).
# 102,709 compounds in the NCI Open Chemical Repository were then screened using this HTS assay. […] Initial hits were confirmed by repeating the same dual luciferase assay in 96 well plates. Briefly, 20,000 cells/well were plated in triplicate for each concentration (10, 5 and 2.5 μM) of the compounds.
# [2] = test system: eIF2.GTP.Met-tRNAi ternary complex; assay: ATF-4 assay (firefly/renilla luciferase ratio) in CRL-2351 cell line; type: cell-based, human
# From the text: For example, reducing amount of the ternary complex increases translation of ATF-4, which results in elevated expression of CHOP mRNA and protein. Therefore, expression of endogenous CHOP mRNA and CHOP protein in KLN-tTA/pBISA-DL^(ATF-4) cells were utilized as secondary assays to validate N,N′-diarylurea compounds as modifiers of the eIF2.GTP.Met-tRNAi ternary complex. […] To rule out the possibility that the activity of N,N′-diarylurea compounds was confined to a single cell type, the effects of these compounds on the ternary complex assay and the expression of CHOP mRNA was assayed in CRL-2351, PC-3, CRL-2813 human breast, prostate, and melanoma cancer cell lines respectively. For the reporter gene assay, the three human cell lines were co-transfected with tTA expression vector and the pBISA-DL^(ATF-4) dual luciferase expression vector shown in FIG. 6. […] The expression of CHOP mRNA was assayed by real time PCR in the same cell lines treated with 5 or 20 μM of each compound.
# Stable and transient transfection: Cells were seeded at the density of 10^5 in 60-mm (stable transfection) or 10^4 cells per well of 96-well plate (transient transfection) plates and transfected one day later using the Qiagen Transfectamine transfection kit. For selection of stable cell lines, transfected cells were transferred to 100-mm plates and selected with appropriate antibiotics.
# Dual luciferase assay: Cells or minced tumors expressing firefly and renilla luciferases were lysed and the extracts assayed with a glow type dual luciferase assay kit, per manufacturer's instruction (Promega Inc., Madison, Wis.).
# [3] = test system: KLN mouse squamous cell carcinoma cells; assay: Cell proliferation SRB assay, KLN; type: cell-based; details: KLN cells, read-out: IC50 (μM) by SRB assay, KLN
# Protocol: (§1) Reduced availability of the ternary complex causes inhibition of translation initiation and thereby of cell proliferation. […] The effects of N,N′-diarylureas on the proliferation KLN mouse squamous cell carcinoma, CRL-2351 human breast, CRL-2813 human melanoma, A549 human lung and PC-3 human prostate cancer cell lines were tested.
# (§2) Cell Growth Assay: Cell Growth was Measured by the SRB Assay.
# [4] = test system: CRL-2351 human breast cancer cells; assay: Cell proliferation SRB assay, CRL-2351; type: cell-based
# Protocol: as §1, §2
# [5] = CRL-2351 human breast cancer cells, read-out: Growth Inhibition IC50 (μm)
Compound,fold induction at 3 µM [1],fold induction at 10 µM [1],"IC50 [4, 5]",also measured
Cc1ccc(N(C)C(=O)Nc2cc(C(F)(F)F)cc(C(F)(F)F)c2)cc1O [BLS13],–,–,–,"Ternary Complex Activity: Maximum effect (Emax, fold over control) [1]: 8.5 fold over control; Cmax [1]: 80 µM"
COc1cc(N(C)C(=O)Nc2cc(C(F)(F)F)cc(C(F)(F)F)c2)ccc1C [BLS14],–,–,–,"Ternary Complex Activity: Maximum effect (Emax, fold over control) [1]: Inactive"
CN(C(=O)Nc1cc(C(F)(F)F)cc(C(F)(F)F)c1)c1cc(C(F)(F)F)cc(C(F)(F)F)c1 [BLS17],–,–,–,"Ternary Complex Activity: Maximum effect (Emax, fold over control) [1]: 13 fold over control; Cmax [1]: 10 µM"
"Cc1ccc(NC(=O)Nc2cc(C(F)(F)F)cc(C(F)(F)F)c2)cc1OCCN(C)C [Compound 13, 3-[3,5-bis(trifluoromethyl)phenyl]-1-{3-[2-(dimethylamino)ethoxy]-4-methylphenyl}urea]",–,–,–,"maximal fold induction ([2]; Homo sapiens, read-out: ATF-4 Amax: maximal activity, ratio of firefly over renilla luciferase expression): 12.5; EC (activity threshold of 5) ([2]; Homo sapiens, read-out: ATF-4 C[5] (μM): concentration corresponding to an activity threshold of 5): 5 µM; Cmax ([2]; read-out: ATF-4 Cmax (μM): concentration corresponding to the maximal activity): 10 µM; IC50 [3]: 12.4 µM; IC50 ([4]; Homo sapiens, 2351 cells, read-out: IC50 (μM) by SRB assay, 2351): 2.9 µM"
FC(F)(F)c1cc(NC(=S)Nc2ccc(Cl)c(C(F)(F)F)c2)ccc1Cl [Compound 1778],5,8,0.4 µM,–
FC(F)(F)c1ccc(NC(=S)Nc2ccc(Cl)c(Cl)c2)cc1 [Compound 1797],1,1,1.2 µM,–
FC(F)(F)c1cc(NC(=S)Nc2ccc(Cl)c(Cl)c2)cc(C(F)(F)F)c1 [Compound 1798],3,5,0.4 µM,–
FC(F)(F)c1cc(NC(=S)Nc2ccc(Cl)c(Cl)c2)ccc1Cl [Compound 1799],4,4,0.7 µM,–
FC(F)(F)c1cc(NC(=S)Nc2ccc(Cl)cc2)cc(C(F)(F)F)c1 [Compound 1800],3,4,0.5 µM,–
FC(F)(F)c1cc(NC(=S)Nc2ccc(Cl)cc2)ccc1Cl [Compound 1801],3,3,0.8 µM,–
Cc1ccc(NC(=S)Nc2ccc(Cl)c(C(F)(F)F)c2)cc1O [Compound 1802],1.5,7,3.5 µM,–
Cc1ccc(NC(=S)Nc2cc(C(F)(F)F)cc(C(F)(F)F)c2)cc1O [Compound 1803],1,12,1.7 µM,–
FC(F)(F)c1cc(NC(=S)Nc2cc(C(F)(F)F)cc(C(F)(F)F)c2)cc(C(F)(F)F)c1 [Compound 1804],6,25,0.1 µM,–
S=C(Nc1ccc(Cl)cc1)Nc1ccc(Cl)c(Cl)c1 [Compound 1805],1.4,8,1.6 µM,–
S=C(Nc1ccc(Cl)c(Cl)c1)Nc1ccc(Cl)c(Cl)c1 [Compound 1806],2.5,3.5,0.9 µM,–
CNC(=O)c1cc(Oc2ccc(NC(=S)Nc3ccc(Cl)c(C(F)(F)F)c3)cc2)ccn1 [Compound 1814],1.5,2,2 µM,–
COc1ccc(NC(=S)Nc2ccccc2)cc1 [Compound 1815],1,1,> 20 µM,–
COc1ccc(NC(=S)Nc2cc(C(F)(F)F)cc(C(F)(F)F)c2)cc1 [Compound 1816],1,2.5,1.5 µM,–
FC(F)(F)c1cc(NC(=S)Nc2ccccc2)cc(C(F)(F)F)c1 [Compound 1819],1,6,1.5 µM,–
CC(C)c1ccccc1NC(=S)Nc1cc(C(F)(F)F)cc(C(F)(F)F)c1 [Compound 1820],1.5,11,1.5 µM,–
CC(C)(C)c1ccccc1NC(=S)Nc1cc(C(F)(F)F)cc(C(F)(F)F)c1 [Compound 1821],1,1,4 µM,–
FC(F)(F)c1cc(Nc2nncn2-c2cc(C(F)(F)F)cc(C(F)(F)F)c2)cc(C(F)(F)F)c1 [Compound 1836],1,1,2 µM,–
Clc1ccc(Nc2nncn2-c2ccc(Cl)c(Cl)c2)cc1Cl [Compound 1842],1,1,–,–
N#Cc1ncc(Cl)cc1[N+](=O)[O-] [Compound 141226],–,–,–,Activity 2.5 uM [1]: 1.02; Activity 10 uM [1]: 3.8
CC(C)(C)C[CH2][Hg][Cl] [Compound 146249],–,–,–,Activity 2.5 uM [1]: 2.57; Activity 10 uM [1]: 3.25
C[C@H](N)C(=O)NCC(=O)N[C@H]1CSSC[C@@H](C(=O)O)NC(=O)[C@H](CO)NC(=O)[C@H]([C@@H](C)O)NC(=O)[C@H](Cc2ccccc2)NC(=O)[C@H]([C@@H](C)O)NC(=O)[C@H](CCCCN)NC(=O)[C@H](Cc2c[nH]c3ccccc23)NC(=O)[C@H](Cc2ccccc2)NC(=O)[C@H](Cc2ccccc2)NC(=O)[C@H](CC(N)=O)NC(=O)[C@H](CCCCN)NC1=O [Somatostatin],–,–,–,Relative F-luc/R-luc Ratio (+/− SEM) ([1]; agent at 20 μM): 0.9 + 0.2
"COc1cc([C@@H]2c3cc4c(cc3[C@@H](O[C@@H]3O[C@@H]5CO[C@@H](C)O[C@H]5[C@H](O)[C@H]3O)[C@H]3COC(=O)[C@H]23)OCO4)cc(OC)c1O [etoposite, reference compound]",–,–,–,Effect on firefly/renilla luciferase ratio [1]: no effect
"CO[C@@]12[C@H](COC(N)=O)C3=C(C(=O)C(C)=C(N)C3=O)N1C[C@@H]1N[C@@H]12 [mitomycin, reference compound]",–,–,–,Effect on firefly/renilla luciferase ratio [1]: no effect
"C/C=C(/C)C(=O)O[C@H]1C(C)=C2[C@H]([C@@H]1OC(=O)CCCCCCC)[C@@](C)(OC(C)=O)C[C@H](OC(=O)CCC)[C@@]1(O)[C@H]2OC(=O)[C@@]1(C)O [thapsigargin, reference compound]",–,–,–,Effect on firefly/renilla luciferase ratio [1]: increase in the ratio
tunicamycin [reference compound],–,–,–,Effect on firefly/renilla luciferase ratio [1]: increase in the ratio

# Reference: patent US9421211B2, “N,N′-diarylurea compounds and N,N′-diarylthiourea compounds as inhibitors of translation initiation” (President and Fellows of Harvard College, priority 2009, dated 2016)
